Measured values from US12729393B2, “Agent interaction effects determination” (priority 2020, dated 2026).

Test system: Escherichia coli reference strain K12-MG1655
Assay: CombiANT self-interaction experiments (3 reservoirs filled with the same antibiotic)
Format: cell-based
Settings: 3 biological replicates; Wilcoxon signed rank test
Source text: FIG. 17 illustrates self-interaction experiments of the Escherichia coli reference strain K12-MG1655. FICi for all self-interactions for the 8 antibiotics AMP, CIP, CTX, GEN, FOF, NIT, MEC, TMP. Bars indicate average FICi values and standard deviation (SD) of 3 biological replicates.
First, as controls, we performed self-interaction experiments, where the 3 culture container insert reservoirs were filled with the same antibiotic. […] Next, to verify that the CombiANT™ assay produced valid synergy quantifications, we ran an accuracy and precision study. We tested all pairwise antibiotic interactions in the two Gram-negative reference strains E. coli […] and P. aeruginosa PA14, and the Gram-positive S. aureus reference strain ATCC29213 against a panel of 4 antibiotics. The tested antibiotics, ampicillin (AMP), cefotaxime (CTX), ciprofloxacin (CIP), and gentamicin (GEN), spanned three distinct mechanisms of action and are commonly used in treatments of bacteremia and sepsis caused by these bacterial species. FICi indices were calculated for all 6 pair-wise interactions and all three strains (FIG. 18A).

| Molecule | nature of self-interaction (FICi) |
| --- | --- |
| CO/N=C(\C(=O)N[C@@H]1C(=O)N2C(C(=O)O)=C(COC(C)=O)CS[C@H]12)c1csc(N)n1 [CTX, cefotaxime] | additive |
| CC1(C)S[C@@H]2[C@H](/N=C/N3CCCCCC3)C(=O)N2[C@H]1C(=O)O [MEC, mecillinam] | additive |
| O=C(O)c1cn(C2CC2)c2cc(N3CCNCC3)c(F)cc2c1=O [CIP, ciprofloxacin] | additive |
| COc1cc(Cc2cnc(N)nc2N)cc(OC)c1OC [TMP, trimethoprim] | additive |
| CC1(C)S[C@@H]2[C@H](NC(=O)[C@H](N)c3ccccc3)C(=O)N2[C@H]1C(=O)O [AMP, ampicillin] | additive |
| C[C@@H]1O[C@@H]1P(=O)(O)O [FOF, fosfomycin] | additive |
| gentamicin | additive |
